Like-named read-outs stand apart in the source and are kept apart here.
What was measured:
HSV1 E377 = assay: microbe, parasite or virus in culture; format: cell-based, Herpes Simplex Virus 1
Method: (§1) Screening Assays for HSV-1, HSV-2, CMV, and VZV
(§2) Cells. Human foreskin fibroblast (HFF) cells were prepared from human foreskin tissue. The tissue was incubated at 4° C. for 4 h in Clinical Medium and then placed in phosphate buffered saline (PBS) to remove the red blood cells, and resuspended in trypsin/EDTA solution. The tissue suspension was incubated at 37° C. and gently agitated to disperse the cells, which were collected by centrifugation. Cells were resuspended in 4 ml Clinical Medium and placed in a flask and incubated at 37° C. in a humidified CO2 incubator for 24 h. The media was then replaced with fresh Clinical Medium and the cell growth was monitored daily until a confluent monolayer has formed. The HFF cells were then expanded through serial passages in standard growth medium of MEM with Earl's salts supplemented with 10% FBS and antibiotics. The cells were passaged routinely and used for assays at or below passage 10.
(§3) Primary Cytopathic Effect (CPE) Reduction Assay. Low passage (3-10) HFF cells were trypsinized, counted, and seeded into 96 well tissue culture plates in 0.1 ml of MEM supplemented with 10% FBS. The cells were then incubated for 24 h at 37° C. The media was then removed and 100 μl of MEM containing 2% FBS was added to all but the first row. In the first row, 125 μl of media containing the experimental drug was added in triplicate wells. Media alone was added to both cell and virus control wells. The drug in the first row of wells was then diluted serially 1:5 throughout the remaining. The plates were then incubated for 60 min and 100 μl of a virus suspension was added to each well, excluding cell control wells which received 100 μl of MEM. The plates were then incubated at 37° C. in a CO2 incubator for three days for HSV-1 and HSV-2, 10 days for VZV, or 14 d for CMV. After the incubation period, media was aspirated and the cells stained with crystal violet in formalin for 4 h. The stain was then removed and the plates were rinsed until all excess stain was removed. The plates were allowed to dry for 24 h and the amount of CPE in each row determined using a BioTek Multiplate Autoreader. EC50 and CC50 values were determined by comparing drug treated and untreated cells using a computer program.

HSV2 G = assay: Primary CPE reduction assay in HFF cells, HSV2 G; format: cell-based, Herpes Simplex Virus 2
Method: as §1, §2, §3

hCMV2 GDGRK17 = assay: Primary CPE reduction assay in HFF cells, hCMV GDGRK17; format: cell-based, human Cytomegalovirus; conditions: for EC50: Human betaherpesvirus 5, HFF, read-out: EC50 (50% reduction in the Cytopathic Effect of the virus); for TI (therapeutic index derived from EC50/CC50): hCMV2 GDGRK17, HFF cells
Method: as §1, §2, §3

VZV Ellen = assay: microbe, parasite or virus in culture; format: cell-based, Vericella Zoster Virus
Method: as §1, §2, §3

mCMV Smith = assay: Primary CPE reduction assay, mCMV Smith; format: cell-based, murine Cytomegalovirus; conditions: for EC50: Murid betaherpesvirus 1, read-out: EC50 (50% reduction in the Cytopathic Effect of the virus)
hCMV1 AD169 = assay: Primary CPE reduction assay in HFF cells, hCMV AD169; format: cell-based, human Cytomegalovirus
Method: as §1, §2, §3

[1] = test system: Human Cytomegalovirus Strain AD169; assay: Additional study versus Human Cytomegalovirus Strain AD169 in HFF cells (procedures of US 2011/0263535 A1); format: cell-based; conditions: for Therapeutic index EC90/HFF Cytotoxicity 50%: Human Cytomegalovirus Strain AD169 in HFF cells; for EC90: Human betaherpesvirus 5, AD169, HFF
Method: Additional studies in HFF cells were performed using the procedures as outlined in US Patent Application Publication No: 2011/0263535 A1 with compounds of 120, 121, and 122. Each of the compounds were tested versus Human Cytomegalovirus Strain AD169 in HFF cells using ganciclovir as a comparator.

[2] = Human alphaherpesvirus 1, read-out: EC50 (50% reduction in the Cytopathic Effect of the virus), HSV1 E377, HFF cells
[3] = Human alphaherpesvirus 2, read-out: EC50 (50% reduction in the Cytopathic Effect of the virus), HSV2 G, HFF cells
[4] = Human betaherpesvirus 5, read-out: EC50 (50% reduction in the Cytopathic Effect of the virus), hCMV1 AD169, HFF cells
[5] = Human alphaherpesvirus 3, HFF, read-out: EC50 (50% reduction in the Cytopathic Effect of the virus)
[6] = Human alphaherpesvirus 1, HFF, read-out: EC50 (50% reduction in the Cytopathic Effect of the virus)
[7] = Human alphaherpesvirus 2, HFF, read-out: EC50 (50% reduction in the Cytopathic Effect of the virus)
[8] = Human betaherpesvirus 5, AD169, HFF, read-out: EC50 (50% reduction in the Cytopathic Effect of the virus)

| Compound | EC50 (HSV1 E377; [2]) [nM] | EC50 (HSV2 G; [3]) [nM] | EC50 (hCMV2 GDGRK17) [nM] | TI (therapeutic index derived from EC50/CC50) (hCMV2 GDGRK17) | EC50 (VZV Ellen; Human alphaherpesvirus 3, read-out: EC50 (50% reduction in the Cytopathic Effect of the virus), VZV Ellen, HFF cells) [nM] | TI (therapeutic index derived from EC50/CC50) (VZV Ellen; VZV Ellen, HFF cells) | TI (therapeutic index derived from EC50/CC50) (HSV1 E377; HSV1 E377, HFF cells) | TI (therapeutic index derived from CC50/EC50) (HSV2 G; HSV2 G, HFF cells) | EC50 (mCMV Smith; mCMV Smith) [nM] | TI (therapeutic index derived from EC50/CC50) (mCMV Smith; mCMV Smith) | EC50 (hCMV1 AD169; [4]) [nM] | TI (therapeutic index derived from EC50/CC50) (hCMV1 AD169; hCMV1 AD169, HFF cells) | EC50 (VZV Ellen; [5]) [nM] | EC50 (HSV1 E377; [6]) [nM] | EC50 (HSV2 G; [7]) [nM] | EC50 (mCMV Smith) [nM] | EC50 (hCMV1 AD169; [8]) [nM] | Therapeutic index EC90/HFF Cytotoxicity 50% [1] | EC90 [1] [nM] |
| --- | --- | --- | --- | --- | --- | --- | --- | --- | --- | --- | --- | --- | --- | --- | --- | --- | --- | --- | --- |
| Nc1nc2c(ncn2COCCO)c(=O)[nH]1 [Acyclovir, reference compound] | 960 | 380 |  |  |  |  |  |  |  |  |  |  |  |  |  |  |  |  |  |
| CC1(CCCCCCCCCCCCS(=O)(=O)CCCOP(=O)(O)CO[C@H](CO)Cn2cnc(N)cc2=O)COC1 [Compound 110, Ammonium 3-((12-(3-methyloxetan-3-yl)dodecyl)sulfonyl)propyl Hydrogen ((((S)-1-(4-amino-6-oxopyrimidin-1(6H)-yl)-3-hydroxypropan-2-yl)oxy)methyl)phosphonate] | 160 | 40 | < 0.3 | >3125 | 10 | 225 | >313 | >1250 | < 0.3 | 2213 | 10 | 184 |  |  |  |  |  |  |  |
| CCOC(=O)P(=O)(OCCCS(=O)(=O)CCCCC1CCC1)OCCCS(=O)(=O)CCCCC1CCC1 [Compound 119, Ethyl (bis(3-((4-cyclobutylbutyl)sulfonyl)propoxy)phosphoryl)formate] |  |  |  |  |  |  |  |  |  |  | > 30000 | <3 |  |  |  |  |  |  |  |
| N.Nc1ccn(C[C@@H](CO)OCP(=O)(O)OCCCS(=O)(=O)CCCCCCCCCCC2CCC2)c(=O)n1 [Compound 120, Ammonium 3-((10-cyclobutyldecyl)sulfonyl)propyl hydrogen ((((S)-1-(4-amino-2-oxopyrimidin-1(2H)-yl)-3-hydroxypropan-2-yl)oxy)methyl)phosphonate] |  |  | < 0.3 | >2772 |  | 25 | 149 | >3950 |  | >3125 |  | 74 | 20 | 70 | 10 | < 0.3 | 8 | >37 | < 20 |
| N.Nc1ccn(C[C@@H](CO)OCP(=O)(O)OCCCS(=O)(=O)CCCCCCCCCCCCC2CCC2)c(=O)n1 [Compound 121, Ammonium 3-((12-cyclobutyldodecyl)sulfonyl)propyl hydrogen ((((S)-1-(4-amino-2-oxopyrimidin-1(2H)-yl)-3-hydroxypropan-2-yl)oxy)methyl)phosphonate] |  |  | < 0.3 | >2753 |  | 23 | 1159 | 498 |  | >3125 |  | >19 | 10 | 10 | 10 | < 0.3 | < 10 | >15 | < 20 |
